Assay results taken from the supplement of paper PMC4932681.

Assays:
T-47D Tam2 [1] = experiment: relative IC50 (midpoint of fitted logistic curve, plateau may be below 50% inhibition; CellTiter-Glo viability); higher = less potent; conditions: 4-OH-tamoxifen in medium 1 µM; 72 h
Outline: (§1)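 Breast cancer cell lines and their resistant derivatives were seeded into 384-well plates containing library drugs at five concentrations across a 10 000-fold range, with resistant lines kept in medium with 1 μM of the selecting drug. After 72 h at 37 °C, CellTiter-Glo viability was read on a PHERAstar and normalised to vehicle-only and positive controls. Logistic dose–response fits in the Breeze pipeline gave drug sensitivity score, relative IC50 (curve midpoint) and top-dose inhibition.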

BT-474 Tam2 [2] = experiment: as above; conditions: 4-OH-tamoxifen in medium 1 µM; 72 h
Outline: as §1

ZR-75-1 Tam1 [3] = experiment: as above; conditions: 4-OH-tamoxifen in medium 1 µM; 72 h
Outline: as §1

ZR-75-1 Tam2 [4] = experiment: as above; conditions: 4-OH-tamoxifen in medium 1 µM; 72 h
Outline: as §1

T-47D [5] = experiment: as above; conditions: 72 h
Outline: as §1

ZR-75-1 [6] = experiment: as above; conditions: 72 h
Outline: as §1

T-47D Tam1 [7] = experiment: as above; conditions: 4-OH-tamoxifen in medium 1 µM; 72 h
Outline: as §1

BT-474 Tam1 [8] = experiment: as above; conditions: 4-OH-tamoxifen in medium 1 µM; 72 h
Outline: as §1

MCF-7 [9] = experiment: as above; conditions: 72 h
Outline: as §1

BT-474 [10] = experiment: as above; conditions: 72 h
Outline: as §1

T-47D Tam2 [11] = experiment: drug sensitivity score (DSS) (DSS (dimensionless)); higher = more sensitive; extreme values may be limits of the assay; conditions: 4-OH-tamoxifen in medium 1 µM; 72 h
Protocol: (§2)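 FIMM FO2B library drugs were tested at 5 concentrations (10,000-fold range) for 72 h, with CellTiter-Glo viability normalised to DMSO and benzethonium chloride controls. The Drug Sensitivity Score (DSS) is computed from the fitted logistic dose-response curve (area-based; 0 = inactive). Resistant lines and the 'in 1µM tamoxifen' arms were tested in 1 µM 4-OH-tamoxifen.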

BT-474 Tam2 [12] = experiment: as above; conditions: 4-OH-tamoxifen in medium 1 µM; 72 h
Protocol: as §2

ZR-75-1 Tam1 [13] = experiment: as above; conditions: 4-OH-tamoxifen in medium 1 µM; 72 h
Protocol: as §2

ZR-75-1 Tam2 [14] = experiment: as above; conditions: 4-OH-tamoxifen in medium 1 µM; 72 h
Protocol: as §2

T-47D [15] = experiment: as above; conditions: 72 h
Protocol: as §2

ZR-75-1 [16] = experiment: as above; conditions: 72 h
Protocol: as §2

T-47D Tam1 [17] = experiment: as above; conditions: 4-OH-tamoxifen in medium 1 µM; 72 h
Protocol: as §2

BT-474 Tam1 [18] = experiment: as above; conditions: 4-OH-tamoxifen in medium 1 µM; 72 h
Protocol: as §2

MCF-7 Tam1 [19] = experiment: as above; conditions: 4-OH-tamoxifen in medium 1 µM; 72 h
Protocol: as §2

MCF-7 [20] = experiment: as above; conditions: 72 h
Protocol: as §2

BT-474 [21] = experiment: as above; conditions: 72 h
Protocol: as §2

MCF-7 Tam1 [22] = experiment: relative IC50 (midpoint of fitted logistic curve, plateau may be below 50% inhibition; CellTiter-Glo viability); higher = less potent; conditions: 4-OH-tamoxifen in medium 1 µM; 72 h
Outline: as §1

Row | Compound | relative IC50 (T-47D Tam2 [1]) | relative IC50 (BT-474 Tam2 [2]) | relative IC50 (ZR-75-1 Tam1 [3]) | relative IC50 (ZR-75-1 Tam2 [4]) | relative IC50 (T-47D [5]; 4-OH-tamoxifen in medium 0 µM) | relative IC50 (ZR-75-1 [6]; 4-OH-tamoxifen in medium 0 µM) | relative IC50 (ZR-75-1 [6]; 4-OH-tamoxifen in medium 1 µM) | relative IC50 (T-47D Tam1 [7]) | relative IC50 (BT-474 Tam1 [8]) | relative IC50 (MCF-7 [9]; 4-OH-tamoxifen in medium 0 µM) | relative IC50 (MCF-7 [9]; 4-OH-tamoxifen in medium 1 µM) | relative IC50 (BT-474 [10]; 4-OH-tamoxifen in medium 1 µM) | drug sensitivity score (T-47D Tam2 [11]) | drug sensitivity score (BT-474 Tam2 [12]) | drug sensitivity score (ZR-75-1 Tam1 [13]) | drug sensitivity score (ZR-75-1 Tam2 [14]) | drug sensitivity score (T-47D [15]; 4-OH-tamoxifen in medium 0 µM) | drug sensitivity score (T-47D [15]; 4-OH-tamoxifen in medium 1 µM) | drug sensitivity score (ZR-75-1 [16]; 4-OH-tamoxifen in medium 0 µM) | drug sensitivity score (ZR-75-1 [16]; 4-OH-tamoxifen in medium 1 µM) | drug sensitivity score (T-47D Tam1 [17]) | drug sensitivity score (BT-474 Tam1 [18]) | drug sensitivity score (MCF-7 Tam1 [19]) | drug sensitivity score (MCF-7 [20]; 4-OH-tamoxifen in medium 0 µM) | drug sensitivity score (MCF-7 [20]; 4-OH-tamoxifen in medium 1 µM) | drug sensitivity score (BT-474 [21]; 4-OH-tamoxifen in medium 0 µM) | drug sensitivity score (BT-474 [21]; 4-OH-tamoxifen in medium 1 µM) | relative IC50 (BT-474 [10]; 4-OH-tamoxifen in medium 0 µM) | relative IC50 (T-47D [5]; 4-OH-tamoxifen in medium 1 µM) | relative IC50 (MCF-7 Tam1 [22])
1 | N#Cc1ccc(COC[C@H]2O[C@@H](n3c(NCc4ccc(Cl)c(Cl)c4)nc4c(N)ncnc43)[C@H](O)[C@@H]2O)cc1 | 2000 nM | 1730 nM | 3000 nM | 3350 nM | 3590 nM | 2070 nM | 1870 nM | 1170 nM | 1920 nM | 4190 nM | 3250 nM | 2750 nM | 2.46 | 3.17 | 2.54 | 2.56 | 1.88 | 1.02 | 4.24 | 4.03 | 5.15 | 3.95 | 0.584 | 1.74 | 2.54 | 0.615 | 4.11 |  |  | 
2 | O=C(Cc1ccc(-c2ccc(OCCN3CCOCC3)cc2)cn1)NCc1ccccc1 [KX2-391] | 91.9 nM | 155 nM | 2190 nM | 1110 nM | 1600 nM | 53.1 nM | 779 nM | 498 nM | 80.2 nM | 86.8 nM | 189 nM | 78 nM | 11.3 | 19.7 | 3.06 | 4.76 | 2.76 | 4.36 | 11.5 | 4.21 | 10.6 | 22 | 0 | 11.2 | 10.5 | 12.3 | 21.8 | 53.6 nM |  | 
3 | CN(C)C[C@@H]1CCn2cc(c3ccccc32)C2=C(C(=O)NC2=O)c2cn(c3ccccc23)CCO1 | 2530 nM | 2610 nM | 1400 nM | 942 nM | 1540 nM | 1320 nM | 1560 nM | 1430 nM | 1590 nM | 2350 nM | 2940 nM | 1860 nM | 4.71 | 6.47 | 3.13 | 4.71 | 6.79 | 6.1 | 4.14 | 6.47 | 6.85 | 9.22 | 1.31 | 7.13 | 4.11 | 4.1 | 8.42 | 3260 nM | 2780 nM | 
4 | Cc1c(N)nc([C@H](CC(N)=O)NC[C@H](N)C(N)=O)nc1C(=O)N[C@H](C(=O)N[C@H](C)[C@@H](O)[C@H](C)C(=O)N[C@H](C(=O)NCCc1nc(-c2nc(C(=O)NCCC[S+](C)C)cs2)cs1)[C@@H](C)O)[C@@H](OC1OC(CO)C(O)C(O)C1OC1OC(CO)C(O)C(OC(N)=O)C1O)c1cnc[nH]1 (stereo not given in full) [Bleomycin] | > 10000 nM | > 10000 nM |  | > 10000 nM |  |  | > 10000 nM |  | > 10000 nM |  |  | > 10000 nM | 0 | 0 | 0.117 | 0 | 0.51 | 0 | 0.615 | 0 | 1.38 | 0 | 0 | 0.0343 | 0.0155 | 0 | 0 | > 10000 nM | > 10000 nM | > 10000 nM
5 | COc1c(C)cnc(Cn2cnc3c(Cl)nc(N)nc32)c1C [BIIB021] | 284 nM | 56.9 nM | 557 nM | 499 nM | 346 nM | 477 nM | 698 nM | 175 nM | 35.4 nM | 110 nM | 409 nM | 49 nM | 8.67 | 22 | 5.21 | 5.51 | 11.6 | 9.03 | 4.41 | 4.44 | 9.86 | 22 | 2.87 | 13.9 | 7.58 | 14.6 | 22.8 | 75.3 nM | 359 nM | 
6 | CCCCCCCCc1ccc(CCC(N)(CO)CO)cc1 [Fingolimod] | 3860 nM | 3390 nM | 3370 nM | 3490 nM | 4090 nM | 3930 nM | 3710 nM | 3780 nM | 4130 nM | 2890 nM | 3910 nM | 4050 nM | 2.59 | 4.99 | 2.18 | 2.69 | 2.91 | 4.24 | 1.58 | 2.36 | 2.83 | 4.13 | 0.0112 | 5.74 | 3.17 | 4.44 | 4.21 | 3770 nM | 3840 nM | 
7 | CCNC(=O)c1noc(-c2cc(C(C)C)c(O)cc2O)c1-c1ccc(CN2CCOCC2)cc1 [NVP-AUY922] | 10.4 nM | 10.2 nM | 22.5 nM | 21.1 nM | 19.9 nM | 18.6 nM | 40.4 nM | 37.2 nM | 3.5 nM | 6.59 nM | 41.2 nM | 2.25 nM | 13.5 | 16.8 | 6.14 | 9.04 | 14.3 | 14.1 | 6.75 | 7.06 | 8.46 | 22.9 | 3.94 | 16.7 | 7.64 | 14.7 | 26.5 | 4.12 nM | 8.93 nM | 
